The source of these data is ChEMBL document CHEMBL1140463, “From ATP to AZD6140: the discovery of an orally active reversible P2Y12 receptor antagonist for the prevention of thrombosis” (Bioorg Med Chem Lett, 2007).

In one data set the target is P2Y purinoceptor 12 (Homo sapiens, UniProt Q9H244). In words: Displacement of [125I] labeled ligand from human P2Y12 receptor in human platelets. A general note: In a radioligand displacement assay an active substance lowers the binding of a labelled ligand.
A short description of data set [1]: Volume of distribution at steady state in rat at 3 mg/kg, iv. In kind it is ADME, organism-based. More on the design: dose 3 mg/kg, route intravenous. The conditions noted are these: in vivo, read-out: Vdss.
The nature of data set [2]: Half life in rat at 3 mg/kg, iv. The conditions noted are these: in vivo. Type of data set: ADME, organism-based. More on the design: dose 3 mg/kg, route intravenous.
Data set [3] can be described thus: Oral bioavailability in rat at 3 to 10 mg/kg. In kind it is ADME, organism-based. Particulars: in vivo.
A short description of another data set: in vivo. The conditions noted are these: rat, iv, 3 mg/kg.
In data set [4] the test system is Hepatocyte. In words: Metabolic stability in human hepatocytes in presence of UDPGA relative to zileuton. In kind it is ADME, cell-based.
The subject of data set [5] is Hepatocyte. Put plainly: Metabolic stability in human hepatocytes in presence of NADPH relative to dextromethorphan. In kind it is ADME, cell-based.
Data set [6] can be described thus: Plasma clearance in dog at 1 mg/kg, iv. In kind it is ADME, organism-based, Canis lupus familiaris. More on the design: dose 1 mg/kg, route intravenous.
A short description of data set [7]: Volume of distribution at steady state in dog at 1 mg/kg, iv. Type of data set: ADME, organism-based, Canis lupus familiaris. More on the design: dose 1 mg/kg, route intravenous. The conditions noted are these: in vivo, read-out: Vdss.
Data set [8] in a line: Half life in dog at 1 mg/kg, iv. In kind it is ADME, organism-based, Canis lupus familiaris. More on the design: dose 1 mg/kg, route intravenous. The conditions noted are these: in vivo.
A short description of data set [9]: Oral bioavailability in dog at 1 mg/kg. Type of data set: ADME, organism-based, Canis lupus familiaris. Particulars: in vivo.
In a further data set the test system is Canis familiaris. In words: Inhibition of ADP-induced platelet aggregation in po dosed dog. Type of data set: functional, organism-based. Particulars: Canis lupus familiaris.

Molecules are shown by their SMILES. Calls of active or inactive are those of the source. The rule behind the calls is not given here. Where only a bound is given, the exact number is not on record here.

Sequence of P2Y purinoceptor 12 (Q9H244 whole entry): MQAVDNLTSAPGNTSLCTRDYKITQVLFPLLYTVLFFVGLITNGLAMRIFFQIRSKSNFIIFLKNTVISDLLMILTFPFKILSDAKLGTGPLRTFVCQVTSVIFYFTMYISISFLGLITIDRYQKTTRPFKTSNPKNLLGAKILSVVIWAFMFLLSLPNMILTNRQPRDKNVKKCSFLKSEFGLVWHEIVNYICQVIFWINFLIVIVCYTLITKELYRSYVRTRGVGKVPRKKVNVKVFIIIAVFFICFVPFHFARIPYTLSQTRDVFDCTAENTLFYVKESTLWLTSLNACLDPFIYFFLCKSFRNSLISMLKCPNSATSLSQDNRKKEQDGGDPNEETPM
Description for in vivo: Plasma clearance in rat at 3 mg/kg, iv

As usually defined, the Ki is a dissociation constant, usually derived from enzyme kinetics or from competition with a known ligand. A high value points to weaker binding. The term half-life denotes how long it takes for the measured level to halve. Lower therefore signals fast loss. What is called bioavailability is the share of a dose that reaches the circulation, judged against a reference dose that is usually intravenous. A higher bioavailability goes with much systemic uptake. By clearance is commonly meant the rate of elimination divided by the concentration. At P2Y purinoceptor 12, `CCCCNc1nc(SCCC)nc2c1nnn2[C@@H]1C[C@H](CO)[C@@H](O)[C@H]1O` gave a Ki of 79.4 nM. In [1], the Vd is 2.3 L/kg. Also, the half-life in [2] was 1.2 h. This compound also displayed a bioavailability in [3] of less than 5%. The clearance in the data set “in vivo” (in vivo) turned out to be 29 mL/min/kg.
`CCCCNc1nc(SCCC)nc2c1nnn2[C@@H]1C[C@H](C(N)=O)[C@@H](O)[C@H]1O` had a Ki on P2Y purinoceptor 12 of 20 nM. In addition, the Vd in [1] came to 1.6 L/kg. The half-life in data set [2] is 1.4 h. Besides, the bioavailability in data set [3] was less than 5%. Moreover, the clearance in “in vivo” (plasma) stood at 21 mL/min/kg.
The compound `OC[C@H]1C[C@@H](n2nnc3c(N[C@@H]4C[C@H]4c4ccccc4)nc(SCCC(F)(F)F)nc32)[C@H](O)[C@@H]1O` showed a Ki on P2Y purinoceptor 12 of 5.01 nM. Also, in the data set with Hepatocyte [4], the Ratio came to 19. In addition, the Stability entry with Hepatocyte [5] is “Stable”.
`CCCSc1nc(N[C@@H]2C[C@H]2c2ccccc2)c2nnn([C@@H]3C[C@H](OCCO)[C@@H](O)[C@H]3O)c2n1` had a Ki at P2Y purinoceptor 12 of 3.16 nM. Besides, the bioavailability in data set [3] amounted to 26%. Further, the Ratio in the data set with Hepatocyte [4] is recorded as 24; with Hepatocyte [5], 13.
Consider `OC[C@H]1C[C@@H](n2nnc3c(N[C@@H]4C[C@H]4c4ccc(F)c(F)c4)nc(SCCC(F)(F)F)nc32)[C@H](O)[C@@H]1O`, for which the affinity on P2Y purinoceptor 12, expressed as Ki, was 5.01 nM. Also, the Vd in [1] was determined as 2.7 L/kg; in data set [7], 5.6 L/kg. Further, the half-life was 3 h in data set [2] and 4.8 h in data set [8]. Also, the bioavailability in data set [3] amounted to 17%; in [9] it was 59%. Moreover, in the data set with Hepatocyte [4], the Stability entry is on record as “Stable”. The Ratio with Hepatocyte [5] was more than 30. In addition, the clearance in [6] was found to be 16.5 mL/min/kg; in the data set “in vivo” (plasma), 11 mL/min/kg.
As to `CCCSc1nc(N[C@@H]2C[C@H]2c2ccccc2)c2nnn([C@@H]3C[C@H](C(=O)O)[C@@H](O)[C@H]3O)c2n1`, the inhibition constant (Ki) on P2Y purinoceptor 12 was 0.251 nM. In addition, the Vd in [1] is 0.5 L/kg. In [2], this compound gave a half-life of 0.5 h. The clearance in the data set “in vivo” (plasma) came out at 16 mL/min/kg.
Turning to `OCCO[C@H]1C[C@@H](n2nnc3c(N[C@@H]4C[C@H]4c4ccc(F)c(F)c4)nc(SCCC(F)(F)F)nc32)[C@H](O)[C@@H]1O`, the affinity at P2Y purinoceptor 12, expressed as Ki, was 0.631 nM. For the same compound, the Vd in data set [1] is 2.1 L/kg. Besides, the half-life in data set [2] was 2.5 h. Also, the bioavailability in data set [3] stood at 9%. Besides, the Stability entry with Hepatocyte [4] is “Stable”. In addition, the Ratio with Hepatocyte [5] stood at 32. This compound also displayed a clearance in the data set “in vivo” (plasma) of 12 mL/min/kg.
`CCCSc1nc(N[C@@H]2C[C@H]2c2ccccc2)c2nnn([C@@H]3C[C@H](CO)[C@@H](O)[C@H]3O)c2n1` [listing 1 of 2 here] gave a Ki on P2Y purinoceptor 12 of 5.01 nM. The Vd in data set [1] is 2.9 L/kg. This compound also gave a half-life in data set [2] of 2.5 h. The same compound showed a bioavailability in data set [3] of 35%. Besides, the Ratio in the data set on Hepatocyte [4] is recorded as 5; in the data set on Hepatocyte [5], more than 30. The compound further gave a clearance in the data set “in vivo” (plasma) of 16 mL/min/kg.
At P2Y purinoceptor 12, `CCCSc1nc(N[C@@H]2C[C@H]2c2ccccc2)c2nnn([C@@H]3C[C@H](C(N)=O)[C@@H](O)[C@H]3O)c2n1` showed a Ki of 1.58 nM. Besides, the Vd in [1] was 2.2 L/kg. In data set [2], the half-life is 2 h. The compound further displayed a bioavailability in [3] of less than 5%. Further, the clearance in the data set “in vivo” (plasma) worked out at 20 mL/min/kg.
For `CCCSc1nc(N[C@@H]2C[C@H]2c2ccccc2)c2nnn([C@@H]3C[C@H](CO)[C@@H](O)[C@H]3O)c2n1` [listing 2 of 2 here], the result in the data set with Canis familiaris was Active.
Turning to `CCCSc1nc(N[C@@H]2C[C@H]2c2ccccc2)c2nnn([C@@H]3C[C@H](O)[C@@H](O)[C@H]3O)c2n1`, the Ki at P2Y purinoceptor 12 was 2 nM. The compound further returned a bioavailability in data set [3] of 50%. For the same compound, the Ratio in the data set with Hepatocyte [4] is 3. In the data set on Hepatocyte [5], the Stability result is “Stable”.
Consider `CCCSc1nc(N[C@@H]2C[C@H]2c2ccccc2)c2nnn([C@@H]3C[C@H](CO)[C@@H](O)[C@H]3O)c2n1.Cl`, for which the Ki on P2Y purinoceptor 12 is 6.31 nM. This compound also came in with a bioavailability in data set [3] of 37%. Further, the Ratio was found to be 19 with Hepatocyte [4] and 27 with Hepatocyte [5].
In the case of `CCCCNc1nc(SCCC)nc2c1nnn2[C@@H]1C[C@H](C(=O)O)[C@@H](O)[C@H]1O`, the Ki at P2Y purinoceptor 12 is 5.01 nM. Further, the Vd in data set [1] worked out at 0.4 L/kg. For the same compound, in data set [2], the half-life was 0.5 h. In data set [3], this compound returned a bioavailability of less than 5%. In the data set “in vivo” (plasma), the clearance stood at 30 mL/min/kg.
`CCCSc1nc(N[C@@H]2C[C@H]2c2ccc(F)c(F)c2)c2nnn([C@@H]3C[C@H](OCCO)[C@@H](O)[C@H]3O)c2n1` [TICAGRELOR] gave a Ki at P2Y purinoceptor 12 of 2 nM. The Vd in data set [1] was determined as 3.8 L/kg; in data set [7], 3 L/kg. Moreover, the results for the half-life in data set [2] and in data set [8] were 2.6 h and 2.9 h, respectively. Further, the bioavailability worked out at 24% in [3] and 72% in data set [9]. Also, in the data set on Hepatocyte [4], the Stability entry is listed as “Stable”. Besides, the Ratio in the data set on Hepatocyte [5] is 24. In addition, the clearance in data set [6] amounted to 9 mL/min/kg; in “in vivo” (plasma), 21 mL/min/kg.
The compound `CCCSc1nc(N[C@@H]2C[C@H]2c2ccccc2)c2nnn([C@@H]3CC[C@@H](O)[C@H]3O)c2n1` had a Ki at P2Y purinoceptor 12 of 2.51 nM. In data set [3], this compound returned a bioavailability of 38%. In the data set with Hepatocyte [4], the Ratio is recorded as 1.
